The source of these data is the CATMoS acute toxicity set (Mansouri et al. 2021).

This series is described as follows: GHS categories as the set defines them, by LD50: 1 up to 5, 2 up to 50, 3 up to 300, 4 up to 2000, 5 above 2000 mg/kg. The settings on record: rat; in vivo; po.

As for `c1coc(CNc2[nH]cnc3ncnc2-3)c1`, the GHS category came out at 5.
The compound `COc1ccc(-c2ccccc2)cc1NNC(=O)OC(C)C` yielded a GHS category of 5.
The compound `CC1=C(/C=C/C(C)=C/C=C/C(C)=C/C=C/C=C(C)/C=C/C=C(C)/C=C/C2=C(C)CCCC2(C)C)C(C)(C)CCC1` returned a GHS category of 5.
Compound `CC(C)(c1ccc(OCCO)cc1)c1ccc(OCCO)cc1` yielded a GHS category of 5.
Compound `CC(=O)O[C@@H]1[C@H](OC(C)=O)[C@@H](C)O[C@H]1n1cc(F)c(N)nc1=O` showed a GHS category of 5.
Take `CC1CCC2(OC1)OC1CC3C4CC=C5CC(O)CCC5(C)C4CCC3(C)C1C2C` (stereo not given): the GHS category is recorded as 5.
`CCOCc1nc(=O)c2nccnc2[nH]1` gave a GHS category of 5.
The result for `O=C1CC(=O)NC(=O)N1` reads 5; that for `O=C1C=CC(=NNc2ccc(N=Nc3ccc(-c4ccc(NN=C5C=CC(=O)C(C(=O)O)=C5)cc4)cc3)c3ccc(S(=O)(=O)O)cc23)C=C1`, 5; that for `O=C1COc2cc(C(=O)c3ccc(Cl)cc3)ccc2N1`, 5.
In the case of `CCCc1c(Cc2ccc(-c3oc(Br)cc3-c3nn[nH]n3)cc2)c(=O)nc2nc[nH]n12` it was 4; in that of `C=CC(C)(CCC=C(C)CC)OC(C)=O` (stereo not given), 5.
In turn, `[C]` returned a GHS category of 5.
The result for `CCS(=O)(=O)c1nc2ccccn2c1S(=O)(=O)NC(=O)Nc1nc(OC)cc(OC)n1` reads 5; that for `CC(C)OC(=O)C(C)(C)Oc1ccc(C(=O)c2ccc(Cl)cc2)cc1`, 5.
For the compound `CC(=O)OC(C)c1ccccc1` (racemic), the GHS category was 5.
In the case of `ClC1C(Br)C(Br)C(Br)C(Br)C1Br` (stereo not given), the GHS category was 5.
`C=C(C)CCC[C@H](C)CCOC(=O)Cc1ccccc1` showed a GHS category of 5.
In the case of `CC(=O)CCC=C(C)CCC=C(C)C` it was 5; in that of `NS(=O)(=O)c1cc(C(=O)NN2C[C@H]3[C@H]4CCC(C4)[C@H]3C2)ccc1Cl`, 5.
`O=C(O)c1ccccc1Nc1ccc(Cl)c2ccccc12`: the GHS category is given as 5.
Consider `CC1(C)Oc2cc(C(=O)c3ccc(Cl)cc3)ccc2NC1=O`, for which the GHS category turned out to be 5.
In the case of `Cn1nnnc1SCCCSc1ccncc1` it was 4; in that of `O=c1[nH]c(=O)n([C@H]2O[C@H](CO)[C@@H](O)[C@@H]2O)cc1/C=C\Br`, 5; in that of `Cc1cc(Cl)ccc1-n1c(C)nc2cccc(Cl)c2c1=O`, 5.
Take `Nc1nc2c(ncn2[C@@H]2O[C@H](COP(=O)(O)O)[C@@H](O)[C@H]2O)c(=O)[nH]1`: the GHS category is reported as 5.
Compound `Cc1cc(C)[n+]([N-]C(=O)c2ccc(Cl)c(S(N)(=O)=O)c2)c(C)c1` gave a GHS category of 5.
`O=c1[nH]sc2cc(Cl)ccc12` showed a GHS category of 5.
For the compound `Cn1cc(C(=O)Cl)c(C(F)F)n1`, the GHS category stood at 5.
For `CCO[Si](CCCCl)(OCC)OCC`, the GHS category is listed as 5.
In turn, `CCCCCCCCCCCC(=O)OC1CC(C)(C)NC(C)(C)C1` came in with a GHS category of 5.
Take `CC1COCc2cc3c(cc21)C(C)(C)C(C)C3(C)C` (stereo not given): the GHS category is 5.
In the case of `COc1ccc2c(c1)CCN(c1cccc(F)c1)C2c1cccc(F)c1` (stereo not given) it was 4; in that of `COCC(=O)O[C@]1(CCN(C)CCCc2nc3ccccc3[nH]2)CCc2cc(F)ccc2[C@@H]1C(C)C`, 4.
`CC(C)C(=O)c1ccc2cc(CC(=O)O)ccc2c1` displayed a GHS category of 5.
The compound `CCCC(=O)OC(C)(C)Cc1ccccc1` gave a GHS category of 5.
The result for `Nc1c(OCCOC(=O)Oc2ccccc2)cc(O)c2c1C(=O)c1ccccc1C2=O` reads 5; that for `Brc1c(Br)c(Br)c(CCc2c(Br)c(Br)c(Br)c(Br)c2Br)c(Br)c1Br`, 5.
In the case of `O=[N+]([O-])c1ccc(C(O)C(CO)N=Cc2ccc(N(CCCl)CCCl)cc2)cc1` (stereo not given) it was 5.
Turning to `CCn1nnnc1CSCCC(N)=O`, the GHS category is on record as 4.
The compound `O=c1[nH]c(=O)n(C2OC(CO)C(O)C2O)cc1C=CBr` (stereo not given) displayed a GHS category of 5.
Compound `O=S(=O)(O)c1ccc2c(c1)Nc1cc3nc4ccc(S(=O)(=O)O)cc4nc3cc1N2` gave a GHS category of 5.
The result for `Nc1cc(Cl)nc(C(=O)O)c1Cl` reads 5.
Turning to `CCOC(=O)c1cc(=O)c2c(OCC(O)COc3cccc4oc(C(=O)OCC)cc(=O)c34)cccc2o1`, the GHS category came out at 5.
Turning to `CCN(Cc1cccc(S(=O)(=O)O)c1)c1ccc(C(=C2C=CC(=[N+](CC)Cc3cccc(S(=O)(=O)O)c3)C=C2)c2ccc(O)cc2S(=O)(=O)[O-])cc1`, the GHS category was determined as 5.
`O=c1nc2nc[nH]n2c(COCc2ccccc2)c1Cc1ccc(-c2ccccc2-c2nn[nH]n2)cc1` registered a GHS category of 4.
The compound `O=C=Nc1cc(Cl)cc(Cl)c1` came in with a GHS category of 5.
Compound `CC(C)CCCC(C)C1CCC2C3CCC4CC(OP(=O)(O)O)CCC4(C)C3CCC12C` (stereo not given) yielded a GHS category of 5.
Turning to `CN1C(=O)C(C)(C)Oc2cc(C(=O)C=Cc3ccc(Cl)cc3)ccc21`, the GHS category is given as 5.
`CCCCCCBr` had a GHS category of 5.
On to `CC(=CC1C(C)=CCCC1(C)C)C(C)O` (stereo not given), for which the GHS category was 5.
Compound `COc1cc2nc(N3CCN(C(=O)CC(C)O)CC3)nc(N)c2cc1OC` (stereo not given) returned a GHS category of 5.
For the compound `O=C(O)c1ccc(C(=O)O)o1`, the GHS category was determined as 5.
As to `NC(CCOc1ccc(C(=NO)C(=O)NC2CN(C(C(=O)O)c3ccc(O)cc3)C2=O)cc1)C(=O)O` (stereo not given), the GHS category was determined as 5.
The compound `CC(=O)Nc1ccccc1CCNC(=O)c1ccc2ccccc2c1O` registered a GHS category of 5.
On to `CCCCCCCc1ccc(O)cc1`, for which the GHS category is listed as 5.
The result for `COC(=O)c1ccccc1S(=O)(=O)NC(=O)Nc1nc(C)cc(C)n1` reads 5; that for `CC1CC(OC(=O)COc2ccc(F)cc2)CC(C)(C)C1` (stereo not given), 5.
The compound `Cc1cc(=O)[nH]c2cc(OCCCN3CCC(Cc4ccccc4)CC3)ccc12` registered a GHS category of 4.
In turn, `C#CCN1C(=O)CCc2c(OCCCN3CCC(Cc4ccccc4)CC3)cccc21` came in with a GHS category of 4.
Compound `Nc1ccc(C(=O)c2ccccc2)cc1O` displayed a GHS category of 5.
In the case of `O=[N+]([O-])c1c(Cl)cccc1-c1c[nH]cc1Cl` it was 5; in that of `CC(C)OC(=O)c1cc(C(=O)OC(C)C)cc([N+](=O)[O-])c1`, 5.
Turning to `CCCCC(=O)O[C@]1(C(=O)CO)[C@@H](C)C[C@H]2[C@@H]3CCC4=CC(=O)C=C[C@]4(C)[C@@]3(F)[C@@H](O)C[C@@]21C`, the GHS category stood at 5.
As for `CC(C)c1nc2ccccc2c(=O)n1-c1ccncc1`, the GHS category is reported as 4.
For the compound `O=C(O)c1ccccc1N=Cc1ccccc1`, the GHS category is 4.
Take `OCc1cncs1`: the GHS category came to 5.
Compound `CC(=O)C[N+]1(CC(N)=O)C(=O)Sc2ccc(Cl)cc21` (stereo not given) had a GHS category of 5.
`CN[C@@H]1[C@@H](O)[C@@H](O[C@@H]2[C@@H](O)[C@H](O[C@H]3O[C@H](CN)[C@@H](O)[C@H](O)[C@H]3O)[C@@H](N)C[C@H]2NC(=O)C(O)CN)OC[C@]1(C)O` (stereo not given in full) showed a GHS category of 5.
As for `COc1nc(Nc2ccccc2)nc(Nc2ccc(C=Cc3ccc(Nc4nc(Nc5ccccc5)nc(OC)n4)cc3S(=O)(=O)O)c(S(=O)(=O)O)c2)n1`, the GHS category is reported as 5.
`CNC(=O)c1c(I)c(NC(=O)CCCCC(=O)Nc2c(I)c(C(=O)O)c(I)c(C(=O)NC)c2I)c(I)c(C(=O)O)c1I` showed a GHS category of 5.
Regarding `COc1ccc(N)cc1N`, the GHS category came to 5.
`CCCc1c(Cc2ccc(-c3ccccc3-c3nn[nH]n3)cc2)c(=O)nc2nc(SC)[nH]n12` yielded a GHS category of 4.
Turning to `CCCCCCCCCCCCCc1cccc(O)c1C(=O)O`, the GHS category turned out to be 4.
On to `O=C(Nc1ccc(Cl)cc1C(O)c1ccccc1)c1ccncc1` (stereo not given), for which the GHS category was determined as 5.
In turn, `Fc1ccccc1C1c2cc3c(cc2CCN1c1ccccc1)OCO3` (stereo not given) came in with a GHS category of 4.
In the case of `CC1(C)COC(Cn2ccnc2)(c2cc3ccccc3o2)OC1` it was 4; in that of `COc1cc(C)c(/C=C/C(C)=C/C=C/C(C)=C/C(=O)O)c(C)c1C`, 5.
The compound `CC(C)(C)OP(=O)(O)OC(C)(C)C` displayed a GHS category of 5.
`CCCCCCCCCCCCCCCC(=O)Nc1cc(Cl)c(CC)c(Cl)c1O` registered a GHS category of 5.
`CCC(=O)/C=C/C=C(\C)CCC=C(C)C` had a GHS category of 5.
`CCCCC(CC)COC(=O)CCCCCCCCC(=O)OCC(CC)CCCC` (stereo not given) yielded a GHS category of 5.
`Cc1c(C#N)sc(N)c1C#N`: the GHS category is 4.
`O=C1c2ccccc2C(=O)N1CCO` displayed a GHS category of 5.
The result for `CCOc1ccc(NC(=O)OC(C)C)cc1OCC` reads 5; that for `COc1cc(OC)nc(NC(=O)Oc2ccccc2)n1`, 5; that for `COc1ccc(C(=O)N2CCN(c3ccc4c(c3)CCC(=O)N4)CC2)cc1OC`, 5.
`Cc1cc(-n2nc3ccc(Cl)cc3n2)c(O)c(C(C)(C)C)c1` had a GHS category of 5.
The compound `CCCCCCCCCC[C@H]1O[C@H]1CCCCC(C)C` registered a GHS category of 5.
The result for `C[C@H]1CO[C@@](Cn2cncn2)(c2cc3cc(Cl)cc(Cl)c3o2)O1` reads 4; that for `Cc1cccc2ncc(C(=O)NC3CCCCC3)c(=O)n12`, 3; that for `COC(=O)c1ccc2cc(C(=O)OC)ccc2c1`, 5.
With `CCOC(=O)C(C)CC` (stereo not given), the GHS category amounted to 5.
As to `CC(C)NP1(=S)OCc2cc([N+](=O)[O-])ccc2O1` (stereo not given), the GHS category was determined as 3.
On to `Nc1ccc2c(c1)C(=O)c1ccccc1C2=O`, for which the GHS category was determined as 5.
Compound `CNc1ccc(C(=O)c2ccc(Cl)cc2)cc1O` returned a GHS category of 5.
Regarding `O=C(O)C(=O)C(O)C(O)C(O)CO` (stereo not given), the GHS category amounted to 5.
The result for `CCCCCCC(=O)OCC` reads 5.
With `CCCc1c(Cc2ccc(-c3ccccc3-c3nn[nH]n3)cc2)c(=O)nc2nc(N(CC)CC)[nH]n12`, the GHS category is listed as 4.
Turning to `Cc1cc2[nH]c(=O)[nH]c2cc1N=NC1C(=O)NC(=O)NC1=O`, the GHS category was 5.
